According to patent US12492173B2, “Herbicidal substituted N-tetrazolyl aryl carboxamides” (Bayer Aktiengesellschaft, priority 2019, dated 2025):

Key:
Format in all cases: in vivo
Stellaria media [1] = assay: Pre-emergence herbicidal action, STEME; conditions: dosage 320 g/ha; for herbicidal activity STEME: scored visually after 3 weeks vs untreated controls (100% = plants have died)
How it was run: (§1)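 Pre-emergence soil spray over sandy loam-covered seeds; greenhouse 3 weeks; % visual damage (0% = control, 100% = dead).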

Viola tricolor [2] = assay: Pre-emergence herbicidal action, VIOTR; conditions: dosage 320 g/ha; for herbicidal activity VIOTR: scored visually after 3 weeks vs untreated controls (100% = plants have died)
How it was run: as §1

Alopecurus myosuroides = assay: Post-emergence herbicidal action, ALOMY; design: key: % herbicidal action vs untreated; 100 = plants died, 0 = like control
How it was run: (§2)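 Visual % damage versus untreated plants, scored about 3 weeks post-spray (100% = dead, 0% = like control). Greenhouse plants in sandy loam were treated at one-leaf stage with WP/EC formulations in water at 600 to 800 l/ha plus 0.2% wetting agent.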

Pharbitis purpurea = assay: Post-emergence herbicidal action, PHBPU
How it was run: as §2

Stellaria media [3] = assay: Post-emergence herbicidal action, STEME; design: key: % herbicidal action vs untreated; 100 = plants died, 0 = like control
How it was run: as §2

Viola tricolor [4] = assay: Post-emergence herbicidal action, VIOTR; design: key: % herbicidal action vs untreated; 100 = plants died, 0 = like control
How it was run: as §2

[5] = comparative experiment, post-emergence, 5 g of a.i./ha

Compound | herbicidal activity STEME (Stellaria media [1]) | herbicidal activity VIOTR (Viola tricolor [2]) | herbicidal action PHBPU (Pharbitis purpurea; Dosage 80 g/ha) | herbicidal action STEME (Stellaria media [3]; Dosage 80 g/ha) | herbicidal action VIOTR (Viola tricolor [4]; Dosage 80 g/ha) | also measured
Cn1nnnc1NC(=O)c1ccc(C(F)(F)F)c(C[S+](C)[O-])c1Cl (racemic) [Example 1-297] | 90% | 100% |  |  |  | herbicidal action ALOMY (Alopecurus myosuroides; post-emergence, dosage 80 g/ha): 100%; Herbicidal action against PHBPU (Pharbitis purpurea; [5]): 80; herbicidal action PHBPU (Pharbitis purpurea; post-emergence, dosage 80 g/ha): 100%; herbicidal action STEME (Stellaria media [3]; post-emergence, dosage 80 g/ha): 100%; herbicidal action VIOTR (Viola tricolor [4]; post-emergence, dosage 80 g/ha): 100%
Cc1c(C(=O)Nc2nnnn2C)ccc(C(F)(F)F)c1C[S+](C)[O-] (stereo not drawn) [Example 1-84] | 100% | 100% |  |  |  | herbicidal action ALOMY (Alopecurus myosuroides; post-emergence, dosage 80 g/ha): 80%; herbicidal action PHBPU (Pharbitis purpurea; post-emergence, dosage 80 g/ha): 100%; herbicidal action STEME (Stellaria media [3]; post-emergence, dosage 80 g/ha): 100%; herbicidal action VIOTR (Viola tricolor [4]; post-emergence, dosage 80 g/ha): 100%
Cc1c(C(=O)Nc2nnnn2C)ccc(C(F)(F)F)c1CS(C)(=O)=O [Example 1-85] | 100% | 100% | 100 | 100 | 100 | 
CCSCc1c(C(F)(F)F)ccc(C(=O)Nc2nnnn2C)c1C [Example 1-86] |  | 100% |  |  |  | herbicidal action ALOMY (Alopecurus myosuroides; post-emergence, dosage 80 g/ha): 80%; herbicidal action PHBPU (Pharbitis purpurea; post-emergence, dosage 80 g/ha): 90%; herbicidal action STEME (Stellaria media [3]; post-emergence, dosage 80 g/ha): 100%; herbicidal action VIOTR (Viola tricolor [4]; post-emergence, dosage 80 g/ha): 100%
CSCc1c(C(F)F)ccc(C(=O)Nc2nnnn2C)c1C [Example 1-107, 4-(difluoromethyl)-2-methyl-3-[(methylsulfanyl)methyl]-N-(1-methyl-1H-tetrazol-5-yl)benzamide] | 90% | 90% | 80 | 100 | 100 | 
Cc1c(C(=O)Nc2nnnn2C)ccc(C(F)F)c1CS(C)(=O)=O [Example 1-109] |  | 100% | 100 | 100 | 100 | 
COc1c(C(=O)Nc2nnnn2C)ccc(C(F)(F)F)c1CSC [Example 1-134] |  | 100% | 100 | 100 | 100 | Herbicidal action against PHBPU (Pharbitis purpurea; post-emergence, dosage 80 g/ha): 90; Herbicidal action against STEME (Stellaria media [3]; post-emergence, dosage 80 g/ha): 90; Herbicidal action against VIOTR (Viola tricolor [4]; [5]): 100; Herbicidal action against VIOTR (Viola tricolor [4]; post-emergence, dosage 80 g/ha): 100
CSCc1c(C(F)(F)F)ccc(C(=O)Nc2nnnn2C)c1SC [Example 1-161] | 100% | 100% | 90 | 100 | 100 | herbicidal action ALOMY (Alopecurus myosuroides; Dosage 80 g/ha): 90
CCSCc1c(C(F)F)ccc(C(=O)Nc2nnnn2C)c1SCC [Example 1-191] | 100% | 100% | 80 | 100 | 100 | herbicidal action ALOMY (Alopecurus myosuroides; Dosage 80 g/ha): 80
CSCc1c(C(F)(F)F)ccc(C(=O)Nc2nnnn2C)c1F [Example 1-242] | 90% | 100% | 100 | 100 | 100 | 
Cn1nnnc1NC(=O)c1ccc(C(F)(F)F)c(C[S+](C)[O-])c1F (stereo not drawn) [Example 1-243] | 90% | 100% | 100 | 100 | 100 | 
Cn1nnnc1NC(=O)c1ccc(C(F)(F)F)c(CS(C)(=O)=O)c1F [Example 1-244] | 90% | 100% | 100 | 100 | 100 | 
Cc1ccc(C(=O)Nc2nnnn2C)c(Cl)c1CS(C)(=O)=O [Example 1-289] | 90% | 90% | 90 | 100 | 100 | herbicidal action ALOMY (Alopecurus myosuroides; Dosage 80 g/ha): 80
CSCc1c(C(F)(F)F)ccc(C(=O)Nc2nnnn2C)c1Cl [Example 1-296] | 100% | 100% |  |  |  | herbicidal action ALOMY (Alopecurus myosuroides; post-emergence, dosage 80 g/ha): 100%; herbicidal action PHBPU (Pharbitis purpurea; post-emergence, dosage 80 g/ha): 100%; herbicidal action STEME (Stellaria media [3]; post-emergence, dosage 80 g/ha): 100%; Herbicidal action against VIOTR (Viola tricolor [4]; [5]): 100; herbicidal action VIOTR (Viola tricolor [4]; post-emergence, dosage 80 g/ha): 100%
Cn1nnnc1NC(=O)c1ccc(C(F)(F)F)c(CS(C)(=O)=O)c1Br [Example 1-382, 2-bromo-3-[(methylsulfonyl)methyl]-N-(1-methyl-1H-tetrazol-5-yl)-4-(trifluoromethyl)benzamide] | 90% | 100% | 100 | 100 | 100 | 
Cn1nnnc1NC(=O)c1ccc(Cl)c(CS(C)(=O)=O)c1Cl [Example 1-561] | 90% | 100% | 100 | 100 | 100 | 
CCn1nnnc1NC(=O)c1ccc(S(C)(=O)=O)c(CS(C)(=O)=O)c1C [Example 2-39] |  |  | 90 | 100 | 100 | herbicidal action STEME (Stellaria media [1]): 100%; herbicidal action VIOTR (Viola tricolor [2]): 100%
CCn1nnnc1NC(=O)c1ccc(C(F)(F)F)c(C[S+](C)[O-])c1OC (stereo not drawn) [Example 2-135] | 90% | 100% | 100 | 100 | 100 | 
CCn1nnnc1NC(=O)c1ccc(C(F)(F)F)c(CS(C)(=O)=O)c1OC [Example 2-136] | 100% | 100% | 90 | 100 | 100 | 
CCCn1nnnc1NC(=O)c1ccc(C(F)(F)F)c(CS(=O)(=O)CC)c1C [Example 3-88] | 80% | 100% | 90 | 100 | 100 | 
CCCn1nnnc1NC(=O)c1ccc(C(F)F)c(CSC)c1C [Example 3-107] | 100% | 100% | 80 | 80 | 100 | 
CCCn1nnnc1NC(=O)c1ccc(C(F)(F)F)c(CSC)c1OC [Example 3-134] | 100% | 100% | 100 | 100 | 100 | 
CCCn1nnnc1NC(=O)c1ccc(C(F)F)c(C[S+]([O-])CC)c1Cl (stereo not drawn) [Example 3-324] | 100% | 100% | 100 | 100 | 100 | 
CCCn1nnnc1NC(=O)c1ccc(C(F)(F)F)c(CSC)c1Br [Example 3-380] |  | 100% | 90 | 100 | 100 | herbicidal action ALOMY (Alopecurus myosuroides; Dosage 80 g/ha): 80
CCCn1nnnc1NC(=O)c1ccc(C(F)(F)F)c(CS(=O)(=O)CC)c1Br [Example 3-385] | 90% | 100% | 90 | 100 | 100 | 
